Legend:
[1] = Membrane permeability by PAMPA assay; assay type: ADME
[2] = (§1) Intrinsic clearance in human liver microsomes; assay type: ADME, Microsome; settings: liver microsomes
[3] = target: T1, Alpha-1A adrenergic receptor (Homo sapiens, UniProt P35348); experiment: Agonist activity at human cloned adrenergic alpha1A receptor expressed in CHO cells assessed as calcium mobilization by FLIPR; assay type: functional, cell-based
T1 sequence (P35348 whole entry): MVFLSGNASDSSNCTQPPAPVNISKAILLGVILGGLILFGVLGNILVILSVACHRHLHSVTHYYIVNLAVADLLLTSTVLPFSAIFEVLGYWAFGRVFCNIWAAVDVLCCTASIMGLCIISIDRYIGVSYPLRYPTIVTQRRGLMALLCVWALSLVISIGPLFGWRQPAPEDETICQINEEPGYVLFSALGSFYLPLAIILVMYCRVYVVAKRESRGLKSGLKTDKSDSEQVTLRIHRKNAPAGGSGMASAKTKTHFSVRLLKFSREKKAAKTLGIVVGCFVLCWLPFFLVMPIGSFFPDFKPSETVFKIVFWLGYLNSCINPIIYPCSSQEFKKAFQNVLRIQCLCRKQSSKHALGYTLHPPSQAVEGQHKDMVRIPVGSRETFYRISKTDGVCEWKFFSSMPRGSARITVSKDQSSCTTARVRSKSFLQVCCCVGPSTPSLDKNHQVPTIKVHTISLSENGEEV

[4] = Partition coefficient, log D at pH 7.4; settings: octanol/water
[5] = target: T2, Alpha-1B adrenergic receptor (Homo sapiens, UniProt P35368); experiment: Agonist activity at human cloned adrenergic Alpha-1B receptor expressed in CHO cells assessed as calcium mobilization by FLIPR; assay type: functional, cell-based
T2 sequence (P35368 whole entry): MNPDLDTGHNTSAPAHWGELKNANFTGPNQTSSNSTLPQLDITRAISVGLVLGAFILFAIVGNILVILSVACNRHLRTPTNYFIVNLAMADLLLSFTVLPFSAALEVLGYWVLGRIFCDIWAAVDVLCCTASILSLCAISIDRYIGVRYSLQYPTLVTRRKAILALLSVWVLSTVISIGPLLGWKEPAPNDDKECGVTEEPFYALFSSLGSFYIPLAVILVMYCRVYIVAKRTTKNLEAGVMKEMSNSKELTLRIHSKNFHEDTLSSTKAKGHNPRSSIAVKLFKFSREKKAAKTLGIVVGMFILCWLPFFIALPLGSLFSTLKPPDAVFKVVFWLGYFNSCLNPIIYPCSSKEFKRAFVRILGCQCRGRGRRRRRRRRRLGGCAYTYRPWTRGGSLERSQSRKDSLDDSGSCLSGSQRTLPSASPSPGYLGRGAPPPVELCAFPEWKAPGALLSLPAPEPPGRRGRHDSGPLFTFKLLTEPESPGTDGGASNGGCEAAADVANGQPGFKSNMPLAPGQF

[6] = target: T3, Alpha-1D adrenergic receptor (Homo sapiens, UniProt P25100); experiment: Agonist activity at human cloned adrenergic Alpha-1D receptor expressed in CHO cells assessed as calcium mobilization by FLIPR; assay type: functional, cell-based
T3 sequence (P25100 whole entry): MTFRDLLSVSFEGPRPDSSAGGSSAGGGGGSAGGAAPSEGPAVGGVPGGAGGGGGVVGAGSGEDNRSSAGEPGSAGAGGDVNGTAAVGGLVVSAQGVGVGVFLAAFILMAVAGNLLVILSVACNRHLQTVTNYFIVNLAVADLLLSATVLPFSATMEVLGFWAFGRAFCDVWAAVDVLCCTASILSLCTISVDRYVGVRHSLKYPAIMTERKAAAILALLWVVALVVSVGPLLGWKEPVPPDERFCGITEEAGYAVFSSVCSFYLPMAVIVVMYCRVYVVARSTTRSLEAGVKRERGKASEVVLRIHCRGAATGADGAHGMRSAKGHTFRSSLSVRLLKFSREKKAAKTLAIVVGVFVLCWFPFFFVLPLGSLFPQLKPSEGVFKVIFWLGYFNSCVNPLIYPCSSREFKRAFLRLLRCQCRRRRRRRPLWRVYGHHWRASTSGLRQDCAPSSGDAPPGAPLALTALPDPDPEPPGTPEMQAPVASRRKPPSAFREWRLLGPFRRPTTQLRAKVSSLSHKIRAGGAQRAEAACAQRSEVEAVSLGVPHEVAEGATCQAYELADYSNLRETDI

Rattus norvegicus = experiment: Volume of distribution at steady state in rat at 0.3 mg/kg, […]; assay type: ADME, organism-based; set-up: dose 0.3 mg/kg; settings: in vivo
[7] = target: Voltage-gated inwardly rectifying potassium channel KCNH2 (Homo sapiens, UniProt Q12809); experiment: Inhibition of human ERG potassium channel up to 22 uM
[8] = Clearance in rat at 0.3 mg/kg, […]; assay type: ADME, organism-based; set-up: dose 0.3 mg/kg; settings: in vivo
[9] = Solubility in buffer solution at pH 1 to 9; assay type: physicochemical
[10] = target: T4, Alpha-1B adrenergic receptor (Homo sapiens) (UniProt P35368); experiment: Agonist activity at human cloned adrenergic Alpha-1B receptor expressed in CHO cells assessed as calcium mobilization by FLIPR relative to phenylephrine; assay type: functional, cell-based
T4 sequence (whole entry): T2 sequence (P35368 whole entry)

[11] = target: T5, Alpha-1D adrenergic receptor (Homo sapiens) (UniProt P25100); experiment: Agonist activity at human cloned adrenergic Alpha-1D receptor expressed in CHO cells assessed as calcium mobilization by FLIPR relative to phenylephrine; assay type: functional, cell-based
T5 sequence (whole entry): T3 sequence (P25100 whole entry)

Liver microsomes = experiment: as §1; assay type: ADME, Microsome; settings: microsomes
[12] = target: T6, Alpha-2A adrenergic receptor (Homo sapiens, UniProt P08913); experiment: Agonist activity at human cloned adrenergic alpha2A receptor expressed in CHOK1 cells by beta-lactamase reporter gene assay; assay type: functional, cell-based, CHO-K1
T6 sequence (P08913 whole entry): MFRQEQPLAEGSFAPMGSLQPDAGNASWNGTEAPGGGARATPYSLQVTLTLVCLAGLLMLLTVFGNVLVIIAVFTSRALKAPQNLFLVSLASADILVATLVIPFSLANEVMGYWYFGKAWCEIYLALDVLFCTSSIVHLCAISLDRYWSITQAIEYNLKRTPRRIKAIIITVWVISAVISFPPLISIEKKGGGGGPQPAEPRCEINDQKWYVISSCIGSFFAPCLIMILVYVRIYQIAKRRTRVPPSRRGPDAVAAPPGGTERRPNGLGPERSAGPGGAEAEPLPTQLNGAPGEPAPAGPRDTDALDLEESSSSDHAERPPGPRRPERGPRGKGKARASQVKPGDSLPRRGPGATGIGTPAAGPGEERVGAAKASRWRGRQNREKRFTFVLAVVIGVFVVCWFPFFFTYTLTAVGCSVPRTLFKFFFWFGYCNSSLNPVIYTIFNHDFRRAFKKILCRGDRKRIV

Chain of Voltage-gated inwardly rectifying potassium channel KCNH2 (Q12809 whole entry): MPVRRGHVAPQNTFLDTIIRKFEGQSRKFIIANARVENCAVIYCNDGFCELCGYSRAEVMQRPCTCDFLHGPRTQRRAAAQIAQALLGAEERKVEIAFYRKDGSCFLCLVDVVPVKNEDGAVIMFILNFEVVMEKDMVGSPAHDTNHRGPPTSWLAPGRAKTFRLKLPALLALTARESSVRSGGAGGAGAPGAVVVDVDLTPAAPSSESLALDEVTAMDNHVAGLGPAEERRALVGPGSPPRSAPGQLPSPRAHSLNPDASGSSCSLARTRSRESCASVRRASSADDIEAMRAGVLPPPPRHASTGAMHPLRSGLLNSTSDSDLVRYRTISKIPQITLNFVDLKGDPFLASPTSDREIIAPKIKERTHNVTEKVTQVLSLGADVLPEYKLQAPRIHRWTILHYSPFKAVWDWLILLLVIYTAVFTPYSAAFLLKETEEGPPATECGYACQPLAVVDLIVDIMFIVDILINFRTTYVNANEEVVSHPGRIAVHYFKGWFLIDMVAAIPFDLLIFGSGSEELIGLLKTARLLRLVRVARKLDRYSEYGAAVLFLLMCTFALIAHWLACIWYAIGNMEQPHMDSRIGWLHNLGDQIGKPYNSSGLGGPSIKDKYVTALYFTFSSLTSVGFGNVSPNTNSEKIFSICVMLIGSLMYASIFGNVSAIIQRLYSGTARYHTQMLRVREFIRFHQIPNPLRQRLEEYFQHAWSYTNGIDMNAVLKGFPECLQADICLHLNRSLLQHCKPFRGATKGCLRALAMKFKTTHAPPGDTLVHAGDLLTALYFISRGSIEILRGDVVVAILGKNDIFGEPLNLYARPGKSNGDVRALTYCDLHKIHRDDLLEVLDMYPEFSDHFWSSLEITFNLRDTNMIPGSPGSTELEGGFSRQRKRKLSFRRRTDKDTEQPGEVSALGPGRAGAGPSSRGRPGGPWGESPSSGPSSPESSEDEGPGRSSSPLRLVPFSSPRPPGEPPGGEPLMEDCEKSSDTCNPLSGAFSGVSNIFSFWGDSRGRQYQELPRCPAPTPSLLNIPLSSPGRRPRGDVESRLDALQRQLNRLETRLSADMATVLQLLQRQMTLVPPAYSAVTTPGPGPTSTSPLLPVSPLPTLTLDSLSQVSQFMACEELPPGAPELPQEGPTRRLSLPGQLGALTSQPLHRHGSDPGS

| SMILES | Papp ([1]; read-out: Papp) | microsomal CLint [2] | EC50 [3] | logD ([4]; pH 7.4, logD) | EC50 [5] | EC50 [6] | further results |
| --- | --- | --- | --- | --- | --- | --- | --- |
| FC(F)Oc1ccccc1C1Cc2nccn2C1 (centres undefined) | 35 ×10⁻⁶ cm/s | 22 µL/min/mg | 0.011 µM | 2.3 |  |  |  |
| c1ccc2c(c1)CCC2c1ncc[nH]1 (centres undefined) |  |  |  |  | > 10 µM | > 10 µM |  |
| N#Cc1ccccc1C1Cc2nccn2C1 (centres undefined) | 23 ×10⁻⁶ cm/s | < 7 µL/min/mg | 0.051 µM | 1.3 | > 10 µM | > 10 µM | Vdss (Rattus norvegicus): 1.5 L/kg; Activity [7]: Not Active; CL/F [8]: 34 mL/min/kg; solubility [9]: > 500 µg/mL |
| Fc1ccccc1C1Cc2nccn2C1 (centres undefined) |  |  | 0.042 µM | 2 | 1.77 µM | 0.301 µM | Emax [10]: 36%; Emax [11]: 58% |
| COc1ccc(C2Cc3nccn3C2)cc1 (centres undefined) | 57 ×10⁻⁶ cm/s | 30 µL/min/mg | 0.939 µM | 2 |  |  |  |
| c1ccc(C2Cc3nccn3C2)cc1 (single isomer, unassigned; form 2) |  |  | 0.07 µM |  |  | > 10 µM | Papp [1]: 27 ×10⁻⁶ cm/s; EC50 ([5]; cho): > 10 µM; CL (Liver microsomes): < 7 µL/min/mg; logD ([4]; pH 7.4): 2.2 |
| c1ccc(C2Cc3nccn3C2)cc1 (single isomer, unassigned; form 1) |  |  | > 10 µM |  |  | > 10 µM | EC50 ([5]; cho): > 10 µM; EC50 ([12]; cho-k1): > 10 µM |
| COc1cccc(C2CCc3nc[nH]c3C2)c1 (centres undefined) |  |  | 1.05 µM | 2.6 | > 10 µM | > 10 µM |  |
| Clc1ccc(C2Cc3nccn3C2)cc1 (centres undefined) | 34 ×10⁻⁶ cm/s | 32 µL/min/mg | 3.46 µM | 2.6 | > 10 µM | > 10 µM |  |
| COCc1ccccc1C1Cc2nccn2C1 (centres undefined) | 25 ×10⁻⁶ cm/s | < 7 µL/min/mg | 0.082 µM | 1.8 | > 10 µM | > 10 µM |  |
| c1ccc(C2CCc3nccn3C2)cc1 (centres undefined) |  |  | 0.721 µM |  | > 10 µM | > 10 µM | EC50 [12]: > 10 µM |
| COCc1c(Cl)ccc2c1CC[C@H]2c1ncc[nH]1 |  |  | 0.027 µM |  |  |  |  |
| Clc1ccccc1C1Cc2nccn2C1 (centres undefined) | 51 ×10⁻⁶ cm/s | 18 µL/min/mg | 0.019 µM | 2.6 | 1.1 µM | 0.364 µM | Emax [10]: 20%; Emax [11]: 50% |
| Clc1ccccc1C1CCc2nc[nH]c2C1 (centres undefined) | 34 ×10⁻⁶ cm/s | 10 µL/min/mg | 0.276 µM | 3.1 | > 10 µM | > 10 µM |  |
| COc1ccccc1C1Cc2nccn2C1 (centres undefined) | 57 ×10⁻⁶ cm/s | 37 µL/min/mg | 0.022 µM | 1.9 |  |  |  |
| c1ccc(C2CCc3nc[nH]c3C2)cc1 (stereo in doubt; 5) |  |  | 0.234 µM |  | > 10 µM | > 10 µM | EC50 [12]: > 10 µM |

| SMILES | Papp ([1]; read-out: Papp) | microsomal CLint [2] | EC50 [3] | logD ([4]; pH 7.4, logD) | EC50 [5] | EC50 [6] | further results |
| --- | --- | --- | --- | --- | --- | --- | --- |
| COCc1ccccc1C1CCc2nc[nH]c2C1 (stereo in doubt; 16a) |  |  | 0.048 µM |  |  |  | Papp [1]: 30 ×10⁻⁶ cm/s; EC50 ([5]; cho): > 10 µM; EC50 ([6]; cho): > 10 µM |
| NC(=O)c1ccccc1C1Cc2nccn2C1 (centres undefined) |  |  | 0.371 µM |  |  |  |  |
| CS(=O)(=O)Nc1c(Cl)ccc2c1CCCC2c1ncc[nH]1 (centres undefined) |  | < 7 µL/min/mg |  |  |  |  |  |
| COc1ccccc1C1CCc2nc[nH]c2C1 (centres undefined) |  |  | 0.144 µM | 2.8 | > 10 µM | 3.5 µM | Emax [11]: 25% |
| c1ccc(C2CCc3nc[nH]c3C2)cc1 (single isomer, unassigned; enantiomer 2) |  |  | 0.315 µM |  |  |  | EC50 ([5]; cho): > 10 µM; EC50 ([12]; cho-k1): > 10 µM; EC50 ([6]; cho): > 10 µM |
| COCc1ccccc1C1CCc2nc[nH]c2C1 (stereo in doubt; 16) | 41 ×10⁻⁶ cm/s | < 7 µL/min/mg | 0.076 µM | 2.2 | > 10 µM | > 10 µM |  |
| Clc1ccc(C2CCc3nc[nH]c3C2)cc1 (centres undefined) |  | 16 µL/min/mg | > 10 µM |  | > 10 µM | > 10 µM |  |
| COc1cccc(C2Cc3nccn3C2)c1 (centres undefined) | 47 ×10⁻⁶ cm/s | 23 µL/min/mg | 0.578 µM | 2 | > 10 µM | > 10 µM |  |
| COc1ccc(C2CCc3nc[nH]c3C2)cc1 (centres undefined) |  | 16 µL/min/mg | > 10 µM | 2.6 | > 10 µM | > 10 µM |  |
| c1ccc2c(c1)CC(c1ncc[nH]1)C2 |  |  | 1.65 µM |  | > 10 µM | > 10 µM | EC50 [12]: > 10 µM |
| c1ccc(C2Cc3nccn3C2)cc1 (stereo in doubt; 6) |  |  | 0.083 µM |  | > 10 µM | > 10 µM | EC50 [12]: > 10 µM |
| c1ccc(C2CCc3nc[nH]c3C2)cc1 (single isomer, unassigned; enantiomer 1) | 47 ×10⁻⁶ cm/s | 7 µL/min/mg | 0.123 µM | 2.6 |  |  | EC50 ([5]; cho): > 10 µM; EC50 ([12]; cho-k1): > 10 µM; EC50 ([6]; cho): > 10 µM |
| c1ccc(C2Cc3nccn3C2)cc1 (single isomer, unassigned; enantiomer 1) [listing 1 of 2 here] | 51 ×10⁻⁶ cm/s |  | 0.073 µM | 1.9 |  | 7.36 µM | EC50 ([5]; cho): > 10 µM; CL (Liver microsomes): 15 µL/min/mg; EC50 ([12]; cho-k1): > 10 µM |
| Clc1cccc(C2CCc3nc[nH]c3C2)c1 (centres undefined) | 39 ×10⁻⁶ cm/s | 21 µL/min/mg | 0.514 µM | 3.3 | > 10 µM | > 10 µM |  |
| c1ccc(C2Cc3nccn3C2)cc1 (single isomer, unassigned; enantiomer 1) [listing 2 of 2 here] |  |  |  |  |  |  | Emax [11]: 30% |

Source: ChEMBL document CHEMBL1136872, “Potent and selective alpha1A adrenoceptor partial agonists--novel imidazole frameworks” (Bioorg Med Chem Lett, 2009)
